# Several values for one entry are separate records, joined by “and”; a condition that tells them apart may be missing. Equal values may be shown once.
# What was measured:
# S. aureus SrtA [1] = biological target: T1, S. aureus SrtA (Staphylococcus aureus, UniProt Q2FV99); experiment: fluorometric enzyme assay of SrtA transpeptidation (Abz-LPETG-Dap(Dnp)-OH substrate); format: biochemical; conditions: for S. I. (k 2nd/k chem): SrtA k 2nd over cysteine k chem; for k inact: maximum inactivation rate; for k inact / KI (inactivation) / k 2nd: Tris pH 7.50, n. i. = <20% inhibition at 100 µM; for KI (inactivation): read-out: KI, dissociation constant of the reversible enzyme-inhibitor complex; for inhibition at 100 µM: read-out: SrtA inhibition relative to the DMSO control; for k 2nd: second-order rate of inhibition
# T1 construct: His tag (inferred from IMAC on a HisTrap column); made in house; host or cells: E. coli BL21 Gold (DE3)
# Procedure: To evaluate the inhibition potency of the parent sulfonylpyrimidine 4, this compound was tested by means of a fluorometric enzyme assay with recombinantly expressed S. aureus SrtA ([Schmohl et al., 2017b]) and Abz-LPETG-Dap (Dnp)-OH as substrate. […] To verify the irreversible mode of inhibition, we determined the maximum inactivation rate k inact, the dissociation constant of the reversible enzyme-inhibitor complex KI, and the second-order rate of inhibition k 2nd. For compound 4, a k inact = 0.00065 s^−1 was found, which is very low compared to other covalent SrtA inhibitors ([Chan et al., 2017]; [Barthels et al., 2020]; [Jaudzems et al., 2020]).
# Inhibition assays of S. aureus SrtA transpeptidation reactions were performed as described previously ([Barthels et al., 2020]). Briefly, the recombinantly expressed SrtA (final concentration: 1 µM) was incubated in assay buffer (50 mM Tris, 150 mM NaCl, 5 mM CaCl2, pH 7.50) with 25 µM of the FRET-pair substrate Abz-LPETG-Dap (Dnp)-OH (Genscript, Piscataway, New Jersey) and 0.5 mM tetraglycine (Sigma Aldrich, St. Louis, Missouri). Inhibitors were added from DMSO stocks. Reactions were initiated by addition of SrtA and monitored for 30 min at 30°C in an Infinite M200 Pro plate reader with λex 320 nm/λem 430 nm (Tecan, Männedorf, Switzerland). Three technical replicates were carried out for each inhibitor in black flat-bottom 96-well plates (Greiner bio-one, Kremsmünster, Austria). The enzyme kinetics of irreversible SrtA inactivation were analyzed as described previously ([Barthels et al., 2020]).
# [2] = biological target: T2, human cathepsin B (hCatB) (Homo sapiens, UniProt P07858); experiment: protease selectivity panel, fluorometric assay cathepsin B; format: biochemical; conditions: 100 µM inhibitor; read-out: CatB inhibition relative to the DMSO control
# T2 construct: purchased Calbiochem, Merck Millipore
# Procedure: (§1) To investigate how these sulfonylpyrimidines affect the activity of other cysteine and serine proteases, a selectivity panel was constructed from a matrix of 6 diverse sulfonylpyrimidines and 6 different proteases. The compounds were assayed at a final compound concentration of 100 µM for the cysteine proteases human cathepsin B (hCatB), cathepsin L (hCatL), and T. brucei rhodesain (Rd). Furthermore, the serine proteases NS2B-NS3 from Zika virus (ZIKV), the homologous protease from Dengue virus (DENV), and the human protease urokinase plasminogen activator (uPA) were tested for their susceptibility.
# (§2) Fluorometric assays of the ZIKV/DENV NS2B/NS3 protease were performed as described previously ([Maus et al., 2021]). The assay was carried out in triplicates at 25°C in assay buffer (50 mM Tris, pH 9.0, 20% glycerol (v/v), and 1 mM CHAPS). 100 µM Boc-Gly-Arg-Arg-AMC (Bachem, Bubendorf, Switzerland) was used as a substrate. Fluorometric assays for cathepsin B, cathepsin L, and rhodesain (Calbiochem, Merck Millipore, Burlington, Massachusetts) were performed as described previously ([Klein et al., 2020a]). Cbz-Phe-Arg-AMC (Bachem, Bubendorf, Switzerland) was used as substrate (100 μM for cathepsin B, 6.5 μM for cathepsin L, and 10 µM for rhodesain). Fluorometric assays for urokinase plasminogen activator were performed as described previously ([Angelini et al., 2012]). 240 µM Cbz-Gly-Arg-Arg-AMC (Bachem, Bubendorf, Switzerland) was used as a substrate.
# cathepsin L (hCatL) = biological target: T3, cathepsin L (hCatL) (Homo sapiens, UniProt P07711); experiment: protease selectivity panel, fluorometric assay cathepsin L; format: biochemical; conditions: 100 µM inhibitor; read-out: CatL inhibition relative to the DMSO control
# T3 construct: purchased Calbiochem, Merck Millipore
# Procedure: as §1, §2
# T. brucei rhodesain (Rd) = biological target: T4, T. brucei rhodesain (Rd) (Trypanosoma brucei rhodesiense, UniProt Q95PM0); experiment: protease selectivity panel, fluorometric assay rhodesain; format: biochemical; conditions: 100 µM inhibitor, n. i. = no inhibition at 100 µM; for inhibition at 100 µM: read-out: Rd inhibition relative to the DMSO control
# T4 construct: purchased Calbiochem, Merck Millipore
# Procedure: as §1, §2
# [3] = biological target: T5, NS2B-NS3 from Zika virus (ZIKV) (Zika virus, UniProt Q32ZE1); experiment: protease selectivity panel, fluorometric assay ZIKV NS2B/NS3 protease; format: biochemical; conditions: 100 µM inhibitor; read-out: ZIKV inhibition relative to the DMSO control
# T5 construct: The ZIKV NS2B/NS3 protease is a serine protease and contains two non-catalytic cysteine residues
# Procedure: as §1, §2
# DENV NS2B/NS3 protease = DENV NS2B/NS3 protease (Dengue virus type 2, UniProt P29990); experiment: protease selectivity panel, fluorometric assay DENV NS2B/NS3 protease; format: biochemical; conditions: 100 µM inhibitor, n. i. = no inhibition at 100 µM; for inhibition at 100 µM: read-out: DENV inhibition relative to the DMSO control
# Procedure: as §1, §2
# [4] = biological target: human protease urokinase plasminogen activator (uPA) (Homo sapiens, UniProt P00749); experiment: protease selectivity panel, fluorometric assay urokinase plasminogen activator; format: biochemical; conditions: 100 µM inhibitor; n. i. = no inhibition at 100 µM; read-out: uPA inhibition relative to the DMSO control
# Procedure: as §1, §2
# [5] = cysteine reactivity assay (competitive fluorescence assay with probe 8); format: physicochemical; conditions: phosphate buffer (1×PBS) pH 7.5
# Text: In order to study the kinetics of sulfonylpyrimidines reacting with free cysteine in solution, a strategy for a competitive fluorescence-based assay was adapted from previous works ([Epps and Taylor, 2001]; [Sameshima et al., 2017]). […] The reaction of probe 8 with cysteine liberates 4-methylumbelliferone as a fluorometrically detectable product (Figure 7A), and thus, the fluorescence increase can be described by the second-order rate constant k probe (Equation 1).
# Upon the addition of competitive and irreversible cysteine modifiers such as sulfonylpyrimidines, the fluorescence increase of the probe reaction was hyperbolically attenuated (Figure 7B). According to the conceptual deduction described previously ([Epps and Taylor, 2001]; [Sameshima et al., 2017]), the experimental fluorescence curves can be analyzed by nonlinear regression as first-order reaction progress curves (Equation 2). The parameter k obs describes the curvature corresponding to the sum of the competing kinetics (Equation 3). Under the assumptions that 1) the competitive reaction between sulfonylpyrimidines vs. probe with cysteine is started by simultaneous addition, and 2) sulfonylpyrimidines are added at a much higher concentration than cysteine (5 µM) and the probe (5 µM), the k obs values depend substantially on the k chem value. The compound-specific second-order inactivation parameter k chem can be determined by linear regression from the k obs values of the dilution series (Equation 4). d[FL]/dt=kprobe[Cys][probe] (1) FL=[Cys]total⋅kprobe [probe]/kprobe [probe] + kchem [sulfonylpyrimidine](1−e^−kobs⋅t) (2) kobs=kchem [sulfonylpyrimidine]+kprobe [probe] (3) kchem=kobs/[sulfonylpyrimidine] (4)
# Kinetic characterization of the reaction between sulfonylpyrimidines and cysteine was performed in degassed phosphate buffer (1×PBS, pH 7.5) or individual cases in bicarbonate buffer (20 mM NaHCO3, 100 mM NaCl, pH 7.5). Three technical replicates were carried out for each sulfonylpyrimidine in black flat-bottom 96-well plates. For this purpose, 50 µL buffered solution (including 5% (v/v) DMSO) of the respective sulfonylpyrimidine derivative (final: 250–3 µM) and the cysteine reactive probe 8 (final: 5 µM) were premixed. Reactions were initiated by the addition of 50 µL cysteine (final: 5 µM), dissolved in the respective buffer, and monitored for 30 min at 30°C in an Infinite M200 Pro plate reader with λex 380 nm/λem 460 nm. To calculate k obs and k chem values, fluorescence curves were fitted using the same non-linear regression as for in vitro inhibition of SrtA ([Barthels et al., 2020]).
# [6] = in-solution reaction with free cysteine (ESI-MS / LC/MS); format: physicochemical; conditions: for time to quantitative reaction with cysteine: compound 100 µM, cysteine 100 µM, phosphate buffered solution pH 7.5
# Procedure: Thus, we determined the point of nucleophilic thiol attack by means of ESI mass spectrometry between the reaction of compound 7a and cysteine in phosphate buffered solution at pH 7.5.
# Furthermore, the influence of different solvents on the reaction of sulfonylpyrimidines with thiols in solution was investigated.
# To a solution of 100 µM cysteine in phosphate-buffered saline (1×, pH 7.5), compound 5a or 7a (100 μM, 5% DMSO) was added and incubated for 10 min at room temperature. The negative labeling control was performed by mock treatment with DMSO. Samples were analyzed by LC/MS using an Agilent 1100 series HPLC system with an Agilent Poroshell 120 EC-C18 column (150 × 2.10 mm 4 μm; mobile phase: ACN/H2O 45:55 + 0.1% formic acid; flow rate: 0.4 ml/min) and electron spray ionization with the Agilent 1100 series LC/MSD Trap in positive ionization mode.
# S. aureus SrtA [7] = biological target: T1, S. aureus SrtA; experiment: fluorometric enzyme assay of SrtA transpeptidation (Abz-LPETG-Dap(Dnp)-OH substrate); format: biochemical
# S. aureus SrtA [8] = biological target: T1, S. aureus SrtA; experiment: MALDI-TOF-MS of SrtA treated with inhibitor; conditions: SrtA 10 µM, inhibitor 100 µM, 1 h room temperature
# Procedure: By using MALDI-TOF mass spectrometry, we aimed to determine the mode of inhibitory action in an enzymatic context. For the native SrtA, we found a protein mass at m/z = 17,806.
# An S. aureus SrtA stock solution was diluted in 100 μL assay buffer (50 mM Tris, 150 mM NaCl, 5 mM CaCl2, pH 7.50) to a final concentration of 10 µM. Compound 7a was dissolved in DMSO and added to SrtA at a final concentration of 100 μM. The protein samples were allowed to react for 1 h at room temperature and subsequently, these were desalted using Zeba^TM Spin desalting columns (7 kDa MWCO, 0.5 ml; Thermo Scientific) according to the manufacturer’s instructions. For MALDI sample preparation, the desalted solution was mixed 1:1 with a matrix combination of equal amounts α-cyano-4-hydroxycinnamic acid (20 mg/ml dissolved in 70% acetonitrile and 30% of formic acid in water at a concentration of 5%) and 2,5-dihydroxybenzoic acid (20 mg/ml dissolved in 70% acetonitrile and 30% of trifluoroacetic acid in water at a concentration of 0.1%). The resulting mixture was allowed to dry slowly on the MALDI target prior to introduction into the mass spectrometer. […] The acceleration voltage was set to 20 kV and the mass spectra were recorded in positive ion linear mode. […] Samples were measured at a laser power of 60% with random walk ionization across the sample spot.
# Cys184 = Cys184 (UniProt position 184, LTLITCDDYNE); experiment: NMR; conditions: free enzyme (inferred); cited from earlier work
# His120 = His120 (UniProt position 120, ISIAGHTFIDR); conditions: free enzyme (inferred); cited from earlier work
# Chain of DENV NS2B/NS3 protease (P29990 1398-1437): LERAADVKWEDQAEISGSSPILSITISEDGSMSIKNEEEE
# Chain of DENV NS2B/NS3 protease (P29990 1476-1653): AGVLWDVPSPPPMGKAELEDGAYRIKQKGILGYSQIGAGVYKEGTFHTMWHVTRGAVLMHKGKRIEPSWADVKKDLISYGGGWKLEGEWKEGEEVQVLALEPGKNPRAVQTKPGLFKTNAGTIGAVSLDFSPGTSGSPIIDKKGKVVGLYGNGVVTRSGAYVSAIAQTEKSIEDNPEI
# T3 sequence (P07711 114-333): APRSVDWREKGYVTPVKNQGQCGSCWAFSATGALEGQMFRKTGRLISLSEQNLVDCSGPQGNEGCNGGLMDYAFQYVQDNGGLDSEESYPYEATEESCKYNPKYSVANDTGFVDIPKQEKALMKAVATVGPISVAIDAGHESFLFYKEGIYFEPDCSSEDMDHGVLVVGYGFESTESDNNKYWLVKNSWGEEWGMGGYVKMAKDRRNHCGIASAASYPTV
# T1 sequence (Q2FV99 60-206): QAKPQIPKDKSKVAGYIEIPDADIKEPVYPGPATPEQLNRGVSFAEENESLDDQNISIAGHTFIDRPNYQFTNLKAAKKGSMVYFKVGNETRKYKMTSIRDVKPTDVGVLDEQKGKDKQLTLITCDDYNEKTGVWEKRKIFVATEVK
# T4 sequence (Q95PM0 entry or part of it): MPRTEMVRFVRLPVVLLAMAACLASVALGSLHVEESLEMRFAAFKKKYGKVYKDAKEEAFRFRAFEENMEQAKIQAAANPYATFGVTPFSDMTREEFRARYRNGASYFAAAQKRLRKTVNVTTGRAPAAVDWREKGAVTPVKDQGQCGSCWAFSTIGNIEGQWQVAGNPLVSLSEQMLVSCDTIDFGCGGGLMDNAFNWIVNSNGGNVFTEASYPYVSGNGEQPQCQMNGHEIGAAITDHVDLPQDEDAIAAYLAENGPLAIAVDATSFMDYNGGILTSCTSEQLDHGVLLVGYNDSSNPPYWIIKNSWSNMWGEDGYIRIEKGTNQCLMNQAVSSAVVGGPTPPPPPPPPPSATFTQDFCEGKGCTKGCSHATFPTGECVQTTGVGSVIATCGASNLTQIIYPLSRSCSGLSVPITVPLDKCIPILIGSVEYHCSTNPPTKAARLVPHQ
# T5 sequence (Q32ZE1 1499-1676): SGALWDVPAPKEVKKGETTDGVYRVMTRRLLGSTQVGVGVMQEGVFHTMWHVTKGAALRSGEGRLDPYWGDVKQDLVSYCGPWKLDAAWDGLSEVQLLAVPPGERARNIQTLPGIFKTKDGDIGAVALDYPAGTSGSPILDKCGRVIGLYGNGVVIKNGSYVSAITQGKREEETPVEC
# T5 sequence (Q32ZE1 1421-1460): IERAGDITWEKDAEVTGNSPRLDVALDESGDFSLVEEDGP
Compound,S. I. (k 2nd/k chem) (S. aureus SrtA [1]),k inact (S. aureus SrtA [1]),KI (inactivation) (S. aureus SrtA [1]) [µM],inhibition at 100 µM (S. aureus SrtA [1]) [%],k 2nd (S. aureus SrtA [1]),inhibition at 100 µM [2] [%],inhibition at 100 µM (cathepsin L (hCatL)) [%],inhibition at 100 µM (T. brucei rhodesain (Rd)) [%],inhibition at 100 µM [3] [%],inhibition at 100 µM [4] [%],Cysteine k chem [5] [M⁻¹ s⁻¹],time to quantitative reaction with cysteine [6],melting point [°C],inhibition at 100 µM (DENV NS2B/NS3 protease) [%],further results
CS(=O)(=O)c1ncc(Cl)c(C(=O)Nc2cccc(Oc3ccccc3)c2)n1 [Compound 5a],159,0.0077 s⁻¹ and 0.00774 ± 0.00007 s⁻¹,57.6 ± 3.55,99,"8,088 M^−1min^−1 and 8,088 ± 464 M^−1min^−1",6.6,8.8,24.6,6.4,23,0.847 ± 0.277,< 10 min,156,–,"improvement of overall inhibition potency (k 2nd), factor (S. aureus SrtA [1]; versus parent compound 4): 10; DENV inhibition relative to the DMSO control (DENV NS2B/NS3 protease): n. i.; reactivity with cysteine (in words) ([6]; water/DMSO mixtures, no buffer): No reactivity; k 2nd (S. aureus SrtA [7]; pH 6.5, Tris or Bis-Tris buffer): 4,384 M^−1min^−1; k 2nd (S. aureus SrtA [7]; pH 7.0, Tris or Bis-Tris buffer): 8,436 M^−1min^−1; k 2nd (S. aureus SrtA [7]; zwitterionic HEPES buffer at pH 7.5): 7,956 M^−1min^−1"
CS(=O)(=O)c1ncc(Cl)c(C(=O)Nc2cccc(C(=O)c3ccccc3)c2)n1 [Compound 6a],327,0.00986 ± 0.00128 s⁻¹,29.6 ± 9.39,98.4,"20,785 ± 4,074 M^−1min^−1",5.6,18,–,18.6,2.2,1.06 ± 0.14,–,175,5.1,fold more potent based on the k 2nd value (S. aureus SrtA [1]; versus virtual screening hit 5a): 2.5 fold; Rd inhibition relative to the DMSO control (T. brucei rhodesain (Rd)): n. i.
CS(=O)(=O)c1nc(Cl)cc(NC(=O)c2ccccc2Oc2ccccc2)n1 [Compound 6i],–,–,–,36,–,9.5,21.3,9.2,29.3,59.4,0,–,184,15,"SrtA inhibition (in words) (S. aureus SrtA [1]; fluorometric enzyme assay, inhibitor concentration 100 µM): complete loss of inhibition"
CS(=O)(=O)c1ncc(Br)c(C(=O)Nc2cccc(C(=O)c3ccccc3)c2)n1 [Compound 7a],268,0.01493 ± 0.00132 s⁻¹,32 ± 5.07,–,"28,185 ± 2,117 M^−1min^−1",–,–,–,–,–,1.748 ± 0.375,less than 10 min,–,–,covalent modification of SrtA (in words) (S. aureus SrtA [8]): quantitative conversion
CS(=O)(=O)c1ncc(Br)c(C(=O)Nc2cccc(Oc3ccccc3)c2)n1 [Compound 7b],134,0.01285 ± 0.00147 s⁻¹,55.9 ± 11.6,99.2,"13,998 ± 1,462 M^−1min^−1",12.5,28.5,4.7,18.3,11.2,1.735 ± 0.323,–,153,5.2,–
Sortase A (SrtA) (Staphylococcus aureus),–,–,–,–,–,–,–,–,–,–,–,–,–,–,pKa (Cys184): 9.4; pKa (His120): 6.3

# — publication PMC8763382, “2-Sulfonylpyrimidines as Privileged Warheads for the Development of S. aureus Sortase A Inhibitors” (Frontiers in Molecular Biosciences, 2022)
